For four compounds, LD50, IC50 and ED (25%) results are on record in patent US4894460A (Pierrel S.p.A., priority 1982, dated 1990).

One data set can be described thus: in vivo. The note with it: mouse, iv, mice, i.v. in dimethylsulfoxide, after seven days, Litchfield and Wilcoxon. On the procedure:
Intravenous Toxicity in Mice
Male CD1 mice from Charles River (Italy), weighing 25 g were used. Compounds were administered intravenously (i.v.), dissolved in dimethylsulfoxide, and the volume of administration was 0.01 ml per 10 g of body weight. The LD50 after seven days, was calculated according to the method of Litchfield and Wilcoxon (Experimental Therapeutics 96, 99 (1949)).

The next data set concerns taenia coli. The data set is described as follows: Antagonistic activity to calcium in the taenia coli of guinea pigs (CaCl2-induced contractions, in vitro). The format is cell-based, Hartley albino guinea pigs. The note with it: Cavia porcellus, 10 min, read-out: Calcium antagonistic activity in vitro ED50. On the procedure: Antagonistic Activity to Calcium in the Taenia Coli of Guinea Pigs
Hartley albino guinea pigs of average weight 450 g were used. The calcium antagonistic activity was determined stimulating the taenia coli, previously depolarized, with a single submaximal concentration of CaCl2 (10^-3 M), at intervals of 20 minutes (according to the method Naunyn Schmied. Arch. Pharmacol. 318, 235 (1982)). The products were left in contact with the preparation for 10 minutes. The ED50 were calculated from the percentage of maximum inhibition.

Data set [1] relates to Spontaneous Hypertensive Rats (SHR). The data set is described as follows: Hypotensive activity in spontaneous hypertensive rats (SHR). The settings on record: Rattus norvegicus, po, p.o. in 0.4% carboxymethyl cellulose, systolic arterial pressure, read-out: Hypotensive activity in SHR ED^SABP -25%. The data set is classed as in vivo, Male SHR (Okamoto) rats. How it is done: Hypotensive Activity in Spontaneous Hypertensive Rats (SHR)
Male SHR (Okamoto), of 70-100 days of age were used. The systolic arterial pressure (SABP) was determined by applying to the tail of the animal a pressure transducer with a sleeve connected to a BP-Recorder (W-W Electronic of Basel). The animals were previously warmed to 39° C. for a period of 15-20 minutes in a ventilated chamber.
The rats were previously trained to the registration for 1-2 days prior to the start of the experiment which consisted of a basic registration, the pharmacological treatment and then of subsequent registrations one hour and three hours after the treatment.
All the products were administered orally (p.o.), suspended in 0.4% carboxymethyl cellulose (Methocel); the volume of vehicle was 2 ml per kg.
The compounds of formula (I) were tested at three dose levels and the value of ED-25% was determined.

[2] abbreviates: guinea pig taenia coli, depolarized, CaCl2 10^-3 M, 10 min contact, from maximum inhibition.

Structures are written as SMILES. pIC50: −log10 of the molar value. Read-outs that look alike come from different tables or passages of the source.

Regarding `COC(=O)C1=C(C)NC(C)=C(C(=O)OCCN2CCN(c3ccc([N+](=O)[O-])cc3)CC2)C1c1cccc([N+](=O)[O-])c1` (stereo not drawn) [0295C, 2-[4-(4-Nitrophenyl)]piperazinoethyl-2,6-dimethyl-4-(3-nitrophenyl)-5-methoxycarbonyl-1,4-dihydropyridine-3-carboxylate], the LD50 at 168 h in “in vivo” turned out to be 38 mg/kg. In addition, in the data set with taenia coli, the pIC50 is 7.96. Moreover, in data set [1], the ED (25%) is over 20 mg/kg.
In the data set “in vivo”, `COC(=O)C1=C(C)NC(C)=C(C(=O)OCCN2CCN(c3ccc([N+](=O)[O-])c(C(F)(F)F)c3)CC2)C1c1cccc([N+](=O)[O-])c1` (stereo not drawn) [0296C, 2-[4-(3-Trifluoromethyl-4-nitrophenyl)]piperazinoethyl-2,6-dimethyl-4-(3-nitrophenyl)-5-methoxycarbonyl-1,4-dihydropyridine-3-carboxylate] came in with an LD50 at 168 h of 55 mg/kg. Further, the pIC50 with taenia coli was 7.72. For the same compound, the ED (25%) in data set [1] was 87 mg/kg.
Turning to `COC(=O)C1=C(C)NC(C)=C(C(=O)OCCN2CCN(c3ccc(C(F)(F)F)cc3)CC2)C1c1cccc([N+](=O)[O-])c1` (stereo not drawn) [0297C, 2-[4-(4-Trifluoromethylphenyl)]piperazinoethyl-2,6-dimethyl-4-(3-nitrophenyl)-5-methoxycarbonyl-1,4-dihydropyridine-3-carboxylate], the LD50 at 168 h in “in vivo” was determined as 73 mg/kg. The pIC50 with taenia coli (setting [2]) is 7.82. For the same compound, the ED (25%) in data set [1] was found to be 4.4 mg/kg.
The like results for `COC(=O)C1=C(C)NC(C)=C(C(=O)OCCN2CCN(c3cccc(OC)c3)CC2)C1c1cccc([N+](=O)[O-])c1` (stereo not drawn) [0298C, 2-[4-(3-Methoxyphenyl)]piperazinoethyl-2,6-dimethyl-4-(3-nitrophenyl)-5-methoxycarbonyl-1,4-dihydropyridine-3-carboxylate] were, in that order, 38 mg/kg, 8.12 and 32 mg/kg.
